Test system: HCV 1b-377-neo replicon cells
Assay: HCV replicon FRET assay
Type: cell-based
Conditions: Hepatitis C virus; HCV replicon; read-out: Activity (EC50)

SMILES: CC(=O)N[C@@H](C)C(=O)Nc1ccc(/C=C/c2ccc(NC(=O)[C@@H]3CCCN3C(=O)Cc3ccccc3)cc2)cc1 [Example 256]
- EC50: 0.1 to 1 µM

SMILES: O=C(Nc1ccc(/C=C/c2ccc(NC(=O)[C@@H]3CCCN3C(=O)c3ccccc3N3CCCCC3)cc2)cc1)[C@@H]1CCCN1C(=O)c1ccccc1N1CCCCC1 [Example 172]
- EC50: 1 to 10 µM

SMILES: O=C(Nc1ccc(/C=C/c2ccc(NC(=O)[C@@H]3CCCN3C(=O)c3cccnc3)cc2)cc1)[C@@H]1CCCN1C(=O)c1cccnc1 [Example 59]
- EC50: 0.1 to 1 µM

SMILES: CN(C)CC(=O)N1CCC[C@H]1C(=O)Nc1ccc(/C=C/c2ccc(NC(=O)[C@@H]3CCCN3C(=O)Cc3cccs3)cc2)cc1 [Example 101]
- EC50: 0.0001 to 0.09 µM

SMILES: CSCC(=O)N1CCC[C@H]1C(=O)Nc1ccc(/C=C/c2ccc(NC(=O)[C@@H]3CCCN3C(=O)CSC)cc2)cc1 [Example 81]
- EC50: 0.0001 to 0.09 µM

SMILES: Cc1nc(C)c(C(=O)N2CCC[C@H]2C(=O)Nc2ccc(/C=C/c3ccc(NC(=O)[C@@H]4CCCN4C(=O)c4sc(C)nc4C)cc3)cc2)s1 [Example 203]
- EC50: 0.1 to 1 µM

SMILES: O=C(Nc1ccc(/C=C\c2ccc(NC(=O)[C@@H]3C[C@@H](O)CN3C(=O)OCc3ccccc3)cc2)cc1)[C@@H]1C[C@@H](O)CN1C(=O)OCc1ccccc1 [Example 8]
- EC50: 0.1 to 1 µM

SMILES: CC(=O)N1CCCC1C(=O)Nc1ccc(/C=C/c2ccc(NC(=O)[C@@H]3CCCN3C(=O)Cc3ccccc3)cc2)cc1 (stereo partly drawn) [Example 251]
- EC50: 0.0001 to 0.09 µM

SMILES: CC(Oc1cccc(Cl)c1)C(=O)N1CCC[C@H]1C(=O)Nc1ccc(/C=C/c2ccc(NC(=O)[C@@H]3CCCN3C(=O)C(C)Oc3cccc(Cl)c3)cc2)cc1 (stereo partly drawn) [Example 29]
- EC50: 0.1 to 1 µM

SMILES: O=C(Nc1ccc(/C=C/c2ccc(NC(=O)[C@@H]3CCCN3C(=O)Cc3cccc4ccccc34)cc2)cc1)[C@@H]1CCCN1C(=O)Cc1cccc2ccccc12 [Example 181]
- EC50: 0.1 to 1 µM

SMILES: C=Cc1ccccc1C(=O)N1CCC[C@H]1C(=O)Nc1ccc(/C=C/c2ccc(NC(=O)[C@@H]3CCCN3C(=O)c3ccccc3C=C)cc2)cc1 [Example 238]
- EC50: 1 to 10 µM

SMILES: CCc1ccccc1C(=O)N1CCC[C@H]1C(=O)Nc1ccc(/C=C/c2ccc(NC(=O)[C@@H]3CCCN3C(=O)Cc3cccnc3)cc2)cc1 [Example 143]
- EC50: 0.1 to 1 µM

SMILES: O=C(Nc1ccc(/C=C/c2ccc(NC(=O)[C@@H]3C=CCN3C(=O)C3CCC3)cc2)cc1)[C@@H]1C=CCN1C(=O)C1CCC1 [Example 74]
- EC50: 0.1 to 1 µM

SMILES: O=C(Nc1ccc(/C=C/c2ccc(NC(=O)[C@@H]3CCCN3C(=O)c3ccccn3)cc2)cc1)[C@@H]1CCCN1C(=O)c1ccccn1 [Example 176]
- EC50: 1 to 10 µM

SMILES: CC(=O)N1CC=C[C@H]1C(=O)Nc1ccc(/C=C/c2ccc(NC(=O)[C@@H]3C=CCN3C(=O)Cc3ccccn3)cc2)cc1 [Example 216]
- EC50: 0.0001 to 0.09 µM

SMILES: O=C(O)CCC(=O)N1CCC[C@H]1C(=O)Nc1ccc(/C=C/c2ccc(NC(=O)[C@@H]3CCCN3C(=O)CCC(=O)O)cc2)cc1 [Example 30]
- EC50: 0.1 to 1 µM

SMILES: Cc1ccc(-c2ccccc2C(=O)N2CCC[C@H]2C(=O)Nc2ccc(/C=C/c3ccc(NC(=O)[C@@H]4CCCN4C(=O)c4ccccc4-c4ccc(C)s4)cc3)cc2)s1 [Example 239]
- EC50: 1 to 10 µM

SMILES: O=C(Cc1ccccc1)NCC(=O)Nc1ccc(/C=C/c2ccc(NC(=O)[C@@H]3CCCN3C(=O)Cc3ccccc3)cc2)cc1 [Example 257]
- EC50: 0.1 to 1 µM

SMILES: O=C(Nc1ccc(/C=C/c2ccc(NC(=O)[C@@H]3CCCN3C(=O)c3ccncc3)cc2)cc1)[C@@H]1CCCN1C(=O)c1ccncc1 [Example 58]
- EC50: 0.0001 to 0.09 µM

SMILES: Cc1nc(-c2cccnc2)sc1C(=O)N1CCC[C@H]1C(=O)Nc1ccc(/C=C/c2ccc(NC(=O)[C@@H]3CCCN3C(=O)c3sc(-c4cccnc4)nc3C)cc2)cc1 [Example 185]
- EC50: 1 to 10 µM

SMILES: CN(C)CC(=O)N1CCC[C@H]1C(=O)Nc1ccc(/C=C/c2ccc(NC(=O)[C@@H]3CCCN3C(=O)CN(C)C)cc2)cc1 [Example 28]
- EC50: 0.1 to 1 µM

SMILES: O=C(Nc1ccc(/C=C/c2ccc(NC(=O)[C@@H]3CCCN3C(=O)c3ccccc3F)cc2)cc1)[C@@H]1CCCN1C(=O)c1ccccc1F [Example 107]
- EC50: 0.1 to 1 µM

SMILES: CCC(C)NC(=O)O[C@@H]1C[C@@H](C(=O)Nc2ccc(/C=C/c3ccc(NC(=O)[C@@H]4C[C@@H](OC(=O)NC(C)CC)CN4C(=O)OCc4ccccc4)cc3)cc2)N(C(=O)OCc2ccccc2)C1 (stereo partly drawn) [Example 249]
- EC50: 1 to 10 µM

SMILES: O=C(Nc1ccc(/C=C/c2ccc(NC(=O)[C@@H]3CCCN3C(=O)Cc3ccncc3)cc2)cc1)[C@@H]1CCCN1C(=O)Cc1ccncc1 [Example 43]
- EC50: 0.1 to 1 µM

SMILES: O=C(Nc1ccc(/C=C/c2ccc(NC(=O)[C@@H]3C=CCN3C(=O)Cc3ccccn3)cc2)cc1)[C@@H]1C=CCN1C(=O)Cc1ccccn1 [Example 215]
- EC50: 0.0001 to 0.09 µM

SMILES: CN(C)c1ccc(C(=O)N2CCC[C@H]2C(=O)Nc2ccc(/C=C/c3ccc(NC(=O)[C@@H]4CCCN4C(=O)c4ccc(N(C)C)cc4)cc3)cc2)cc1 [Example 82]
- EC50: 1 to 10 µM

SMILES: O=C(Nc1ccc(/C=C/c2ccc(NC(=O)[C@@H]3CCCN3C(=O)c3ccccc3NCc3ccccc3)cc2)cc1)[C@@H]1CCCN1C(=O)Cc1cccnc1 [Example 151]
- EC50: 0.1 to 1 µM

SMILES: O=C(Nc1ccc(/C=C/c2ccc(NC(=O)[C@@H]3CCCN3C(=O)C3Cc4ccccc43)cc2)cc1)[C@@H]1CCCN1 (stereo partly drawn) [Example 115]
- EC50: 1 to 10 µM

SMILES: CC(C)NC(=O)O[C@@H]1C[C@@H](C(=O)Nc2ccc(/C=C/c3ccc(NC(=O)[C@@H]4C[C@@H](O)CN4C(=O)OCc4ccccc4)cc3)cc2)N(C(=O)OCc2ccccc2)C1 [Example 246]
- EC50: 1 to 10 µM

SMILES: CC(C)(C)CC(=O)N1CCC[C@H]1C(=O)Nc1ccc(/C=C/c2ccc(NC(=O)[C@@H]3CCCN3C(=O)CC(C)(C)C)cc2)cc1 [Example 48]
- EC50: 0.1 to 1 µM

SMILES: O=C(Nc1ccc(/C=C/c2ccc(NC(=O)[C@@H]3CCCN3C(=O)Cc3ccccc3)cc2)cc1)c1ccccc1NCc1ccccc1 [Example 267]
- EC50: 0.1 to 1 µM

SMILES: [N-]=[N+]=Nc1cccc(CC(=O)N2CCC[C@H]2C(=O)Nc2ccc(/C=C/c3ccc(NC(=O)[C@@H]4CCCN4C(=O)CCCC[C@@H]4SC[C@@H]5NC(=O)N[C@@H]54)cc3)cc2)c1 [Example 127]
- EC50: 0.1 to 1 µM

SMILES: O=C(Nc1ccc(/C=C/c2ccc(NC(=O)[C@@H]3CCCN3C(=O)c3ccccc3C3=CCCC3)cc2)cc1)[C@@H]1CCCN1C(=O)c1ccccc1C1=CCCC1 [Example 237]
- EC50: 1 to 10 µM

SMILES: NCCCCC(N)C(=O)N1CCC[C@H]1C(=O)Nc1ccc(/C=C/c2ccc(NC(=O)[C@@H]3CCCN3C(=O)Cc3ccccc3)cc2)cc1 (stereo partly drawn) [Example 273]
- EC50: 1 to 10 µM

SMILES: CCOc1ccccc1C(=O)N1CCC[C@H]1C(=O)Nc1ccc(/C=C/c2ccc(NC(=O)[C@@H]3CCCN3C(=O)c3ccccc3OCC)cc2)cc1 [Example 158]
- EC50: 1 to 10 µM

SMILES: CC(C)(C)O[C@@H]1C[C@@H](C(=O)Nc2ccc(/C=C/c3ccc(NC(=O)[C@@H]4CCCN4C(=O)Cc4ccccc4)cc3)cc2)N(C(=O)OCc2ccccc2)C1 [Example 274]
- EC50: 0.0001 to 0.09 µM

SMILES: CN(C)CC(=O)N1CCC[C@H]1C(=O)Nc1ccc(/C=C/c2ccc(NC(=O)[C@@H]3CCCN3C(=O)c3ccc(N(C)C)cc3)cc2)cc1 [Example 83]
- EC50: 0.1 to 1 µM

SMILES: O=C(Nc1ccc(/C=C/c2ccc(NC(=O)[C@@H]3CCCN3C(=O)c3ncccc3OCc3ccccc3)cc2)cc1)[C@@H]1CCCN1C(=O)c1ncccc1OCc1ccccc1 [Example 183]
- EC50: 1 to 10 µM

SMILES: O=C(Nc1ccc(/C=C/c2ccc(NC(=O)[C@@H]3CCCN3C(=O)c3cccc4c3Cc3ccccc3-4)cc2)cc1)[C@@H]1CCCN1C(=O)c1cccc2c1Cc1ccccc1-2 [Example 165]
- EC50: 1 to 10 µM

SMILES: CO[C@H]1C[C@@H](C(=O)Nc2ccc(/C=C/c3ccc(NC(=O)[C@@H]4C[C@H](OC)CN4C(=O)OCc4ccccc4)cc3)cc2)N(C(=O)OCc2ccccc2)C1 [Example 17]
- EC50: 1 to 10 µM

SMILES: O=C(Nc1ccc(/C=C/c2ccc(NC(=O)[C@@H]3CCCN3C(=O)c3ccccc3Cc3ccccc3)cc2)cc1)[C@@H]1CCCN1C(=O)c1ccccc1Cc1ccccc1 [Example 171]
- EC50: 0.1 to 1 µM

SMILES: CC(C)C(=O)N1CC=C[C@H]1C(=O)Nc1ccc(/C=C/c2ccc(NC(=O)[C@@H]3C=CCN3C(=O)C(C)C)cc2)cc1 [Example 73]
- EC50: 0.1 to 1 µM

SMILES: O=C(Nc1ccc(/C=C/c2ccc(NC(=O)[C@@H]3CCCN3C(=O)Cc3ccccc3)cc2)cc1)c1ccccc1OCc1ccccc1 [Example 268]
- EC50: 1 to 10 µM

SMILES: O=C(Nc1ccc(/C=C\c2ccc(NC(=O)[C@@H]3CCCN3C(=O)Cc3ccccc3)cc2)cc1)[C@@H]1CCCN1C(=O)Cc1ccccc1 [Example 5]
- EC50: 0.0001 to 0.09 µM

SMILES: CN(C)[C@H]1C[C@@H](C(=O)Nc2ccc(/C=C/c3ccc(NC(=O)[C@@H]4C[C@H](N(C)C)CN4C(=O)Cc4ccccc4)cc3)cc2)N(C(=O)Cc2ccccc2)C1 [Example 225]
- EC50: 0.0001 to 0.09 µM

SMILES: CSCC(=O)N1CCC[C@H]1C(=O)Nc1ccc(/C=C/c2ccc(NC(=O)[C@@H]3CCCN3C(=O)Cc3cc(C)no3)cc2)cc1 [Example 94]
- EC50: 0.0001 to 0.09 µM

SMILES: COCC(=O)N1CCC[C@H]1C(=O)Nc1ccc(/C=C/c2ccc(NC(=O)[C@@H]3CCCN3C(=O)c3cccnc3)cc2)cc1 [Example 87]
- EC50: 0.0001 to 0.09 µM

SMILES: O=C(Nc1ccc(/C=C/c2ccc(NC(=O)[C@@H]3CCCN3C(=O)[C@H](O)c3ccccc3)cc2)cc1)[C@@H]1CCCN1C(=O)[C@H](O)c1ccccc1 [Example 298]
- EC50: 0.0001 to 0.09 µM

SMILES: O=C(Nc1ccc(/C=C/c2ccc(NC(=O)[C@@H]3CCCN3C(=O)c3ccccc3CCc3ccccc3)cc2)cc1)[C@@H]1CCCN1C(=O)c1ccccc1CCc1ccccc1 [Example 169]
- EC50: 0.1 to 1 µM

SMILES: Cc1cc(CC(=O)N2CCC[C@H]2C(=O)Nc2ccc(/C=C/c3ccc(NC(=O)[C@@H]4CCCN4C(=O)C(C)C)cc3)cc2)on1 [Example 98]
- EC50: 0.0001 to 0.09 µM

SMILES: CCc1ccncc1C(=O)N1CCC[C@H]1C(=O)Nc1ccc(/C=C/c2ccc(NC(=O)[C@@H]3CCCN3C(=O)c3cnccc3CC)cc2)cc1 [Example 197]
- EC50: 0.1 to 1 µM

SMILES: Cc1cccc(-c2cccnc2C(=O)N2CCC[C@H]2C(=O)Nc2ccc(/C=C/c3ccc(NC(=O)[C@@H]4CCCN4C(=O)c4ncccc4-c4cccc(C)c4)cc3)cc2)c1 [Example 233]
- EC50: 1 to 10 µM

SMILES: CC(C)(C)OC(=O)N1CC(C(=O)N2CCC[C@H]2C(=O)Nc2ccc(/C=C/c3ccc(NC(=O)[C@@H]4CCCN4C(=O)C4CN(C(=O)OC(C)(C)C)C4)cc3)cc2)C1 [Example 112]
- EC50: 0.1 to 1 µM

SMILES: Nc1ccc(/C=C/c2ccc(NC(=O)[C@@H]3CCCN3C(=O)Cc3ccccc3)cc2)cc1 [Example 250A]
- EC50: 1 to 10 µM
